Test results as given in PubChem BioAssay AID2060493 (Molecular Pharmacology Branch, DTP, NCI, 2025).
Several values for one entry are separate records, joined by “and”; a condition that tells them apart may be missing. Equal values may be shown once.

System: 616215-338-R-J1-PDC tumor spheroids, viability
Test: Anticancer human tumor 616215-338-R-J1-PDC patient-derived colon adenocarcinoma cell line growth inhibition [GQUAD]
Details: spheroids with HUVEC and MSC; for viability, T/C: stronger effect = lower value
In short: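 Tumor cells were grown as complex spheroids with HUVEC endothelial cells and mesenchymal stem cells as stroma. G-quadruplex stabilizers were combined with targeted agents over half-log dilutions from near the clinical Cmax, or from 10 microM.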
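Also: spheroids exposed to agents for 7 days before readout.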
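For viability, T/C in this document: percent viability relative to DMSO vehicle control wells taken as 100%.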

| IC50 (curve of compound) | IC50 (compound alone, run of 04/22/2024) | SMILES | viability, T/C (compound 0.0316 µM) | viability, T/C (compound 0.1 µM) | viability, T/C (compound 0.316 µM) | viability, T/C (compound 1 µM) | viability, T/C (compound 3.16 µM) | viability, T/C (compound 10 µM) | viability, T/C (compound 0.000999 µM) | viability, T/C (compound 0.00316 µM) | viability, T/C (compound 0.00999 µM) | viability, T/C (compound 0.0999 µM) |
| --- | --- | --- | --- | --- | --- | --- | --- | --- | --- | --- | --- | --- |
| 8040 nM and > 10000 nM |  | C#Cc1c(F)ccc2cc(O)cc(-c3ncc4c(N5CC6CCC(C5)N6)nc(OCC56CCCN5CC(F)C6)nc4c3F)c12 (stereo not given) | 100% and 113% and 106% | 90.1% and 98.3% and 110% | 102% and 104% and 110% | 80.2% and 106% and 104% | 68% and 106% and 91.7% | 45.8% and 63.5% and 59.2% |  |  |  |  |
| 13.9 nM and 15.6 nM and 16.3 nM |  | CCc1c2c(nc3ccc(O)cc13)-c1cc3c(c(=O)n1C2)COC(=O)[C@]3(O)CC | 24.8% and 30.3% and 29.4% |  | 14.9% and 9.21% and 12.4% |  |  |  | 93.6% and 102% (2×) | 75.4% and 93.8% and 87.9% | 63.3% and 61.1% and 66.4% | 22% and 16.5% and 16.2% |
| 35.6 nM and < 31.6 nM and 35.8 nM |  | Nc1ccn(C2OC(CO)C(O)C2(F)F)c(=O)n1 (stereo not given) | 53.3% and 42.5% and 53% | 21.3% and 23.8% and 25.2% | 16.9% and 9.13% and 18.7% | 17.8% and 10.8% and 15.7% | 14% and 12.8% and 17.5% | 17.1% and 11.2% and 17.3% |  |  |  |  |
|  | > 10000 nM | CN(C)c1ccc(Nc2c3ccc(NC(=O)CCN4CCCC4)cc3nc3cc(NC(=O)CCN4CCCC4)ccc23)cc1 | 105% [middle of 12 runs] | 104% [middle of 12 runs] | 102% [middle of 12 runs] | 100% [middle of 12 runs] | 99.6% [middle of 12 runs] | 93.9% [middle of 12 runs] |  |  |  |  |
|  |  | Cc1cnc(CNC(=O)c2c(=O)c3ccc(N4CCCN(C)CC4)nc3n3c2sc2ccccc23)cn1 | 104% [middle of 12 runs] |  |  |  | 31.6% [middle of 12 runs] | 25.1% [middle of 12 runs] |  |  |  |  |
| 749 nM and 1560 nM and 781 nM |  | COc1cc(C2c3cc4c(cc3C(OC3OC5COC(C)OC5C(O)C3O)C3COC(=O)C23)OCO4)cc(OC)c1O (stereo not given) | 106% and 97.9% and 101% | 93% and 95.6% and 92.9% | 72.8% (2×) and 63.2% | 41.4% and 57.3% and 43.4% | 29.8% and 39.9% and 37.9% | 24.3% and 21.6% and 20% |  |  |  |  |
| > 316 nM and 273 nM and 297 nM |  | CC[C@@]1(O)C(=O)OCc2c1cc1n(c2=O)Cc2cc3c(CN(C)C)c(O)ccc3nc2-1 | 92.8% and 96.2% and 101% |  | 50.1% and 44.3% and 47.5% |  |  |  | 106% and 109% and 103% | 93.6% and 97% and 92.9% | 92.7% and 99.7% and 101% | 97.8% and 89% and 91.2% |
